This is an account of results in patent US10730875B2, “Substituted imidazo[1,2-A]pyridin-2-ylamine compounds, and pharmaceutical compositions and methods of use thereof” (JN Therapeutics, priority 2015, dated 2020).

Format in all cases: biochemical
The test system of experiment [1] is human tyrosine kinase 2 (TYK2), recombinant catalytic domain. Description: LanthaScreen TR-FRET enzymatic assay, TYK2. As to conditions: ratio of IC50 against TYK2 over IC50 against JAK1. The procedure:
(§1) The in vitro inhibition of recombinant human JAKs was determined as follow.
(§2) Compounds were tested in LANTHASCREEN™ time-resolved fluorescence energy transfer (TR-FRET) enzymatic assays from Invitrogen. The human Janus kinase 1 (JAK1) used in the assay is the recombinant JAK1 catalytic domain (amino acids 866-1154) expressed and purified from insect cells (Invitrogen, Cat. No. PV4774). The human Janus kinase 2 (JAK2) used in the assay is the recombinant JAK2 catalytic domain (amino acids 808-1132) expressed and purified from insect cells (Invitrogen, Cat. No. PV4210). The human Janus kinase 3 (JAK3) used in the assay is the recombinant JAK3 catalytic domain (amino acids 781-1124) expressed and purified from insect cells (Invitrogen, Cat. No. PV3855). The human tyrosine kinase 2 (TYK2) used in the assay is the recombinant TYK2 catalytic domain (amino acids 833-1187) expressed and purified from insect cells (Invitrogen, Cat. No. PV4790). The substrate is a recombinant STAT1 expressed as a fusion with GFP (Green Fluorescent Protein) to act as a physiological substrate (Invitrogen, Cat. No. PV5211).
(§3) Test compounds were prepared and diluted in DMSO in 3-fold serial dilutions for 10 doses to 100× of the final testing concentrations. The compounds were then further diluted to 4× by the kinase reaction buffer (Invitrogen, Cat. No. PV3189). The enzymatic reaction for compound testing was performed in a white 384-well polypropylene plate (Packard, Cat. No. 6005214) with a total reaction volume of 10 μL containing 440 ng/mL JAK1, 11 ng/mL JAK2, 400 ng/mL JAK3, or 200 ng/mL TYK2, 100 nM substrate, and 1 mM ATP. The assay started with loading 2.5 μL of JAK1, JAK2, JAK3, or TYK2 diluted in the kinase reaction buffer to wells, followed by addition of an equal volume of 4× compounds for 15-min incubation at room temperature for pre-treatment. The enzymatic reaction was initiated by addition of 5 μL of a mixture of the substrate and ATP prepared in the kinase reaction buffer. After one hour reaction, 10 μL mixture of EDTA (final 10 mM) and terbium-labeled anti-pSTAT1 (pTyr701) antibody (final 2 nM) (Invitrogen, Cat. No. PV4844) prepared in TR-FRET antibody dilution buffer (Invitrogen, Cat. No. PV3574) was added to stop the enzymatic reaction and produce TR-FRET signals. After 30 minutes of incubation at room temperature, the plate was read in Tecan Infinite F200 Pro with the following settings: Excitation 340 nm (30)/Emission1 495 nm (10)/Emission2 520 nm (25). The TR-FRET values were dimensionless numbers that were calculated as the ratio of the acceptor ([…]) signal to the donor (Terbium) signal. Percent of inhibition was calculated as (100%−percentage of compound-treated/DMSO vehicle-treated). The dose-response curves were generated and the IC50s were calculated by nonlinear sigmoid curve fitting using GraphPad Prism.
(§4) In Table 1, A represents a value no greater than 500 nM, B represents a value greater than 500 nM but no greater than 1 μM, C represents a value greater than 1 μM but no greater than 5 μM, and D represents a value greater than 5 μM. In Table 2, A′ represents a ratio of greater than 8, B′ represents a ratio of no greater than 8 but no less than 4, C′ represents a ratio of no greater than 4 but no less than 2, and D′ represents a ratio of no greater than 2. The selectivity is expressed as a ratio of the IC50 values of a compound against two kinases to be compared.
In general terms: TR-FRET usually uses a lanthanide donor and a delayed reading to cut background.

Experiment [2] deals with human tyrosine kinase 2 (TYK2), recombinant catalytic domain (Homo sapiens (Human), UniProt P29597). Briefly: LanthaScreen TR-FRET enzymatic assay, TYK2. As to conditions: TR-FRET, 1 mM ATP, GFP-STAT1 substrate; read-out: Inhibitory Activity IC50 TYK2. On the procedure:
as §1, §2, §3, §4

For experiment [3], the target named is human Janus kinase 2 (JAK2), recombinant catalytic domain (Homo sapiens (Human), UniProt O60674). Briefly: LanthaScreen TR-FRET enzymatic assay, JAK2. The settings on record: for IC50: TR-FRET, 1 mM ATP, GFP-STAT1 substrate, read-out: Inhibitory Activity IC50 JAK2; for Selectivity JAK2/JAK1: ratio of IC50 against JAK2 over IC50 against JAK1. On the procedure:
as §1, §2, §3, §4

Experiment [4] concerns the target human Janus kinase 1 (JAK1), recombinant catalytic domain (Homo sapiens (Human), UniProt P23458). Briefly: LanthaScreen TR-FRET enzymatic assay, JAK1. The settings on record: 1 mM ATP, GFP-STAT1 substrate, read-out: Inhibitory Activity IC50 JAK1. The procedure: as §1, §2, §3, §4
The target of experiment [5] is human Janus kinase 3 (JAK3), recombinant catalytic domain (Homo sapiens (Human), UniProt P52333). Briefly: LanthaScreen TR-FRET enzymatic assay, JAK3. As to conditions: TR-FRET, 1 mM ATP, GFP-STAT1 substrate; read-out: Inhibitory Activity IC50 JAK3. The procedure:
as §1, §2, §3, §4

The subject of experiment [6] is human Janus kinase 3 (JAK3), recombinant catalytic domain. Briefly: LanthaScreen TR-FRET enzymatic assay, JAK3. The settings on record: ratio of IC50 against JAK3 over IC50 against JAK1. On the procedure: as §1, §2, §3, §4

Chain of human Janus kinase 1 (JAK1), recombinant catalytic domain (P23458 866-1154): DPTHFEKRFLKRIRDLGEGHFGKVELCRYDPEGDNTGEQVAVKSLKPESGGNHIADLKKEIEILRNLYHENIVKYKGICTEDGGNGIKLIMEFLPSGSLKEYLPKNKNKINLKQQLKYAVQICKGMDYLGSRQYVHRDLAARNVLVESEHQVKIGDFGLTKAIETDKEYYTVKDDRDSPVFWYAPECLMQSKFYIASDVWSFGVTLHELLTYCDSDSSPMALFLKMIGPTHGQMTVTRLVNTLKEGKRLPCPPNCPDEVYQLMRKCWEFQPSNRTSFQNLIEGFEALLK
Chain of human Janus kinase 2 (JAK2), recombinant catalytic domain (O60674 808-1132): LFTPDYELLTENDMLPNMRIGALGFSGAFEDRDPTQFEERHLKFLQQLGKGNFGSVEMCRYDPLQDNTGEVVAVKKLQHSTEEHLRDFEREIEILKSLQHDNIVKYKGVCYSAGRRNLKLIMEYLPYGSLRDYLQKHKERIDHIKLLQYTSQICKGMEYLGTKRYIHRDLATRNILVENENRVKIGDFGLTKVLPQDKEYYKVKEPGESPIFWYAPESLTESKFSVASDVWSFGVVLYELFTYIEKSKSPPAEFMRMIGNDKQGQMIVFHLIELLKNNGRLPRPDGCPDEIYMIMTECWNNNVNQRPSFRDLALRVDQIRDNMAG
Chain of human tyrosine kinase 2 (TYK2), recombinant catalytic domain (Homo sapiens (Human), UniProt P29597) (P29597 833-1187): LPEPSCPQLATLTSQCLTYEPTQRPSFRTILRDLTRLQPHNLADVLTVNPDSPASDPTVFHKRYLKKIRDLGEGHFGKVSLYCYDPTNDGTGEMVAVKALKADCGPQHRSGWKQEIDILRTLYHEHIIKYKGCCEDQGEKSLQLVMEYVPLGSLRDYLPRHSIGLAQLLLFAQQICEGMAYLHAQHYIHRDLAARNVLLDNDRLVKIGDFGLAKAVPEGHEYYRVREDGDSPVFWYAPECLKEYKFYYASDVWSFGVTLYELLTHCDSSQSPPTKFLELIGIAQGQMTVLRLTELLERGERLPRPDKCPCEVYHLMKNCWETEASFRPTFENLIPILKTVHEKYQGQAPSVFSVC
Chain of human Janus kinase 3 (JAK3), recombinant catalytic domain (Homo sapiens (Human), UniProt P52333) (P52333 781-1124): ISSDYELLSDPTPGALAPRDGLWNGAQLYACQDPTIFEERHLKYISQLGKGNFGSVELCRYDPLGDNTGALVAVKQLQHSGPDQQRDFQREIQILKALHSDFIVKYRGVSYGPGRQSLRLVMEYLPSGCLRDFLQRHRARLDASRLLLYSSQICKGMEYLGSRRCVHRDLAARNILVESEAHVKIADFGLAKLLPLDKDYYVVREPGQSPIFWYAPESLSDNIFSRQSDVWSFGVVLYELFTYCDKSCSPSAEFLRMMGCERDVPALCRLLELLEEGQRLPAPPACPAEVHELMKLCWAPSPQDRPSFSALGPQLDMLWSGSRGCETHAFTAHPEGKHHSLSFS

`O=C(Nc1cn2c(-c3ccc(CN4CC[C@H](O)C4)cc3)cccc2n1)C1CC1` [Compound 8]: in experiment [1], the “Selectivity TYK2/JAK1” value is “A′ (A′ represents a ratio of greater than 8)”. Besides, the IC50 (in general, the concentration that gives 50% inhibition) in experiment [2] was greater than 5 µM; in experiment [3], greater than 5 µM; in experiment [4], 0.5 to 1 µM; in experiment [5], greater than 5 µM. The “Selectivity JAK2/JAK1” value in experiment [3] is given as “A′ (A′ represents a ratio of greater than 8)”. For the same molecule, the “Selectivity JAK3/JAK1” value in experiment [6] was “A′ (A′ represents a ratio of greater than 8)”.
In the case of `O=C(Nc1cn2c(-c3ccc(CN4CC[C@@H](O)C4)cc3)cccc2n1)C1CC1` [Compound 9], the “Selectivity TYK2/JAK1” value in experiment [1] is reported as “A′ (A′ represents a ratio of greater than 8)”. Also, the IC50 was greater than 5 µM in experiment [2], greater than 5 µM in experiment [3], 1 to 5 µM in experiment [4] and greater than 5 µM in experiment [5]. In experiment [3], the “Selectivity JAK2/JAK1” value is given as “A′ (A′ represents a ratio of greater than 8)”. Also, the “Selectivity JAK3/JAK1” value in experiment [6] is “A′ (A′ represents a ratio of greater than 8)”.
For `N#CCc1ccccc1NCc1ccc(-c2cccc3nc(NC(=O)C4CC4)cn23)cc1` [Compound 32], the “Selectivity TYK2/JAK1” value in experiment [1] is given as “A′ (A′ represents a ratio of greater than 8)”. Also, the IC50 was greater than 5 µM in experiment [2], greater than 5 µM in experiment [3], no more than 0.5 µM in experiment [4] and greater than 5 µM in experiment [5]. The “Selectivity JAK2/JAK1” value in experiment [3] is listed as “A′ (A′ represents a ratio of greater than 8)”. Further, in experiment [6], the “Selectivity JAK3/JAK1” value was “A′ (A′ represents a ratio of greater than 8)”.
`Cc1ccc(-c2ccc(CN3CCS(=O)(=O)CC3)cc2)n2cc(NC(=O)C3CC3)nc12` [Compound 35]: the IC50 in experiment [2], in experiment [3], in experiment [4] and in experiment [5] was greater than 5 µM in each case.
Take `O=C(Nc1cn2c(-c3cccc(CN4CCS(=O)(=O)CC4)c3)cccc2n1)C1CC1` [Compound 29]: the “Selectivity TYK2/JAK1” value in experiment [1] is on record as “C′ (C′ represents a ratio of no greater than 4 but no less than 2)”. Further, the IC50 in experiment [2], in experiment [3], in experiment [4] and in experiment [5] was greater than 5 µM in each case. The “Selectivity JAK2/JAK1” value in experiment [3] is “C′ (C′ represents a ratio of no greater than 4 but no less than 2)”. In addition, the “Selectivity JAK3/JAK1” value in experiment [6] is “A′ (A′ represents a ratio of greater than 8)”.
As to `CC(C#N)c1ccc(-c2cccc3nc(NC(=O)C4CC4)cn23)cc1` (stereo not shown) [Compound 27], in experiment [1], the “Selectivity TYK2/JAK1” value was “A′ (A′ represents a ratio of greater than 8)”. For the same molecule, the IC50 in experiment [2] was greater than 5 µM; in experiment [3], greater than 5 µM; in experiment [4], 0.5 to 1 µM; in experiment [5], greater than 5 µM. Also, the “Selectivity JAK2/JAK1” value in experiment [3] is listed as “A′ (A′ represents a ratio of greater than 8)”. Moreover, the “Selectivity JAK3/JAK1” value in experiment [6] is “A′ (A′ represents a ratio of greater than 8)”.
For the molecule `COc1ccc(-c2cccc3nc(NC(=O)C4CC4)cn23)cc1` [Compound 10], the “Selectivity TYK2/JAK1” value in experiment [1] was “A′ (A′ represents a ratio of greater than 8)”. The IC50 in experiment [2] is greater than 5 µM; in experiment [3], greater than 5 µM; in experiment [4], 1 to 5 µM; in experiment [5], greater than 5 µM. In experiment [3], the “Selectivity JAK2/JAK1” value was “A′ (A′ represents a ratio of greater than 8)”. Further, the “Selectivity JAK3/JAK1” value in experiment [6] is listed as “A′ (A′ represents a ratio of greater than 8)”.
Regarding `O=C(Nc1cn2c(-c3ccc(CN4CCCCC4)cc3)cccc2n1)C1CC1` [Compound 6], the “Selectivity TYK2/JAK1” value in experiment [1] is listed as “A′ (A′ represents a ratio of greater than 8)”. The IC50 in experiment [2] is greater than 5 µM; in experiment [3], greater than 5 µM; in experiment [4], 1 to 5 µM; in experiment [5] it was greater than 5 µM. Moreover, the “Selectivity JAK2/JAK1” value in experiment [3] is reported as “A′ (A′ represents a ratio of greater than 8)”. In addition, in experiment [6], the “Selectivity JAK3/JAK1” value is on record as “A′ (A′ represents a ratio of greater than 8)”.
For the molecule `Cc1cc(-c2ccc(CN3CCS(=O)(=O)CC3)cc2)n2cc(NC(=O)C3CC3)nc2c1` [Compound 33], the “Selectivity TYK2/JAK1” value in experiment [1] is “A′ (A′ represents a ratio of greater than 8)”. Besides, the IC50 in experiment [2], in experiment [3], in experiment [4] and in experiment [5] was greater than 5 µM in each case. For the same molecule, the “Selectivity JAK2/JAK1” value in experiment [3] was “A′ (A′ represents a ratio of greater than 8)”. Besides, the “Selectivity JAK3/JAK1” value in experiment [6] is given as “A′ (A′ represents a ratio of greater than 8)”.
For `N#CCc1ccc(-c2cccc3nc(NC(=O)C4CC4)cn23)cc1` [Compound 11], in experiment [1], the “Selectivity TYK2/JAK1” value is listed as “A′ (A′ represents a ratio of greater than 8)”. The IC50 was greater than 5 µM in experiment [2], greater than 5 µM in experiment [3], no more than 0.5 µM in experiment [4] and greater than 5 µM in experiment [5]. Further, the “Selectivity JAK2/JAK1” value in experiment [3] is “A′ (A′ represents a ratio of greater than 8)”. The “Selectivity JAK3/JAK1” value in experiment [6] is on record as “A′ (A′ represents a ratio of greater than 8)”.
In the case of `CC1(C)CN(C(=O)c2ccc(-c3cccc4nc(NC(=O)C5CC5)cn34)c(F)c2)C1` [Compound 23], the “Selectivity TYK2/JAK1” value in experiment [1] was “A′ (A′ represents a ratio of greater than 8)”. Also, the IC50 is greater than 5 µM in experiment [2], greater than 5 µM in experiment [3], 0.5 to 1 µM in experiment [4] and greater than 5 µM in experiment [5]. The “Selectivity JAK2/JAK1” value in experiment [3] is given as “A′ (A′ represents a ratio of greater than 8)”. The “Selectivity JAK3/JAK1” value in experiment [6] was “A′ (A′ represents a ratio of greater than 8)”.
Consider `O=C(Nc1cn2c(-c3ccc(C(=O)N4CCS(=O)(=O)CC4)cc3)cccc2n1)C1CC1` [Compound 13, N-(5-(4-(1,1-Dioxo-1-thiomorpholine-4-carbonyl)phenyl)imidazo[1,2-a]pyridin-2-yl)cyclopropane Carboxamide], for which the “Selectivity TYK2/JAK1” value in experiment [1] is recorded as “A′ (A′ represents a ratio of greater than 8)”. The IC50 in experiment [2] is greater than 5 µM; in experiment [3], greater than 5 µM; in experiment [4], 0.5 to 1 µM; in experiment [5], greater than 5 µM. In experiment [3], the “Selectivity JAK2/JAK1” value was “A′ (A′ represents a ratio of greater than 8)”. Also, in experiment [6], the “Selectivity JAK3/JAK1” value is “A′ (A′ represents a ratio of greater than 8)”.
For `N#CCc1ccc(-c2cccc3nc(N)cn23)c(F)c1` [Compound 21], the “Selectivity TYK2/JAK1” value in experiment [1] is reported as “C′ (C′ represents a ratio of no greater than 4 but no less than 2)”. Also, the 50% inhibitory concentration (IC50) in experiment [2], in experiment [3], in experiment [4] and in experiment [5] was greater than 5 µM each time. In addition, the “Selectivity JAK2/JAK1” value in experiment [3] is reported as “A′ (A′ represents a ratio of greater than 8)”. Also, the “Selectivity JAK3/JAK1” value in experiment [6] was “A′ (A′ represents a ratio of greater than 8)”.
For the molecule `N#CC1(c2ccc(-c3cccc4nc(NC(=O)C5CC5)cn34)cc2)CC1` [Compound 22], the “Selectivity JAK2/JAK1” value in experiment [3] is reported as “A′ (A′ represents a ratio of greater than 8)”. In addition, the IC50 in experiment [5] was greater than 5 µM.
Take `O=C(Nc1cn2c(-c3ccc(CN4CCS(=O)(=O)CC4)cc3)c(Cl)ccc2n1)C1CC1` [Compound 34]: the IC50 in experiment [2], in experiment [3], in experiment [4] and in experiment [5] was greater than 5 µM throughout.
